Experiment [1] has as its target DNA-PK (Homo sapiens (Human), UniProt P78527). Kind of experiment: DNA-PK Enzyme-Linked Immunosorbent Assay (phosphorylation of GST-p53 (1-101) peptide). The experiment is classed as biochemical. To be noted: ELISA. An outline of the steps: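 Inhibition measured by 450 nm absorbance after HRP/TMB detection of phospho-Ser15 on immobilized GST-p53 (1-101). The kinase reaction used 0.1 μg/mL DNA-PK and 20 μM ATP, 1 h at 25 °C. Ten 3-fold compound dilutions, top final concentration 100 nM.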
Background: An ELISA detects its analyte on a solid surface through an enzyme-linked reagent.

The target in experiment [2] is ATM (Homo sapiens (Human), UniProt Q13315). Kind of experiment: ATM in Cell Western Assay (pKAP1 in etoposide-treated MCF-7 cells). Format: cell-based. An outline of the steps: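 After paraformaldehyde fixation and Triton X-100 permeabilization, immunostained plates were read by infrared scanning (ODYSSEY CLx). Compound was given as 10 doses, 3-fold dilutions from a 1 μM final top concentration.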

Where [3] appears, read: MCF-7 cells, etoposide 100 μM, 1 hr, pKAP1 readout.
The mark [4] stands for this setting: pKAP1 in etoposide-treated MCF-7 cells.

Counter-ions that a name gives are not always drawn.

ATM, sequence (Q13315 whole entry): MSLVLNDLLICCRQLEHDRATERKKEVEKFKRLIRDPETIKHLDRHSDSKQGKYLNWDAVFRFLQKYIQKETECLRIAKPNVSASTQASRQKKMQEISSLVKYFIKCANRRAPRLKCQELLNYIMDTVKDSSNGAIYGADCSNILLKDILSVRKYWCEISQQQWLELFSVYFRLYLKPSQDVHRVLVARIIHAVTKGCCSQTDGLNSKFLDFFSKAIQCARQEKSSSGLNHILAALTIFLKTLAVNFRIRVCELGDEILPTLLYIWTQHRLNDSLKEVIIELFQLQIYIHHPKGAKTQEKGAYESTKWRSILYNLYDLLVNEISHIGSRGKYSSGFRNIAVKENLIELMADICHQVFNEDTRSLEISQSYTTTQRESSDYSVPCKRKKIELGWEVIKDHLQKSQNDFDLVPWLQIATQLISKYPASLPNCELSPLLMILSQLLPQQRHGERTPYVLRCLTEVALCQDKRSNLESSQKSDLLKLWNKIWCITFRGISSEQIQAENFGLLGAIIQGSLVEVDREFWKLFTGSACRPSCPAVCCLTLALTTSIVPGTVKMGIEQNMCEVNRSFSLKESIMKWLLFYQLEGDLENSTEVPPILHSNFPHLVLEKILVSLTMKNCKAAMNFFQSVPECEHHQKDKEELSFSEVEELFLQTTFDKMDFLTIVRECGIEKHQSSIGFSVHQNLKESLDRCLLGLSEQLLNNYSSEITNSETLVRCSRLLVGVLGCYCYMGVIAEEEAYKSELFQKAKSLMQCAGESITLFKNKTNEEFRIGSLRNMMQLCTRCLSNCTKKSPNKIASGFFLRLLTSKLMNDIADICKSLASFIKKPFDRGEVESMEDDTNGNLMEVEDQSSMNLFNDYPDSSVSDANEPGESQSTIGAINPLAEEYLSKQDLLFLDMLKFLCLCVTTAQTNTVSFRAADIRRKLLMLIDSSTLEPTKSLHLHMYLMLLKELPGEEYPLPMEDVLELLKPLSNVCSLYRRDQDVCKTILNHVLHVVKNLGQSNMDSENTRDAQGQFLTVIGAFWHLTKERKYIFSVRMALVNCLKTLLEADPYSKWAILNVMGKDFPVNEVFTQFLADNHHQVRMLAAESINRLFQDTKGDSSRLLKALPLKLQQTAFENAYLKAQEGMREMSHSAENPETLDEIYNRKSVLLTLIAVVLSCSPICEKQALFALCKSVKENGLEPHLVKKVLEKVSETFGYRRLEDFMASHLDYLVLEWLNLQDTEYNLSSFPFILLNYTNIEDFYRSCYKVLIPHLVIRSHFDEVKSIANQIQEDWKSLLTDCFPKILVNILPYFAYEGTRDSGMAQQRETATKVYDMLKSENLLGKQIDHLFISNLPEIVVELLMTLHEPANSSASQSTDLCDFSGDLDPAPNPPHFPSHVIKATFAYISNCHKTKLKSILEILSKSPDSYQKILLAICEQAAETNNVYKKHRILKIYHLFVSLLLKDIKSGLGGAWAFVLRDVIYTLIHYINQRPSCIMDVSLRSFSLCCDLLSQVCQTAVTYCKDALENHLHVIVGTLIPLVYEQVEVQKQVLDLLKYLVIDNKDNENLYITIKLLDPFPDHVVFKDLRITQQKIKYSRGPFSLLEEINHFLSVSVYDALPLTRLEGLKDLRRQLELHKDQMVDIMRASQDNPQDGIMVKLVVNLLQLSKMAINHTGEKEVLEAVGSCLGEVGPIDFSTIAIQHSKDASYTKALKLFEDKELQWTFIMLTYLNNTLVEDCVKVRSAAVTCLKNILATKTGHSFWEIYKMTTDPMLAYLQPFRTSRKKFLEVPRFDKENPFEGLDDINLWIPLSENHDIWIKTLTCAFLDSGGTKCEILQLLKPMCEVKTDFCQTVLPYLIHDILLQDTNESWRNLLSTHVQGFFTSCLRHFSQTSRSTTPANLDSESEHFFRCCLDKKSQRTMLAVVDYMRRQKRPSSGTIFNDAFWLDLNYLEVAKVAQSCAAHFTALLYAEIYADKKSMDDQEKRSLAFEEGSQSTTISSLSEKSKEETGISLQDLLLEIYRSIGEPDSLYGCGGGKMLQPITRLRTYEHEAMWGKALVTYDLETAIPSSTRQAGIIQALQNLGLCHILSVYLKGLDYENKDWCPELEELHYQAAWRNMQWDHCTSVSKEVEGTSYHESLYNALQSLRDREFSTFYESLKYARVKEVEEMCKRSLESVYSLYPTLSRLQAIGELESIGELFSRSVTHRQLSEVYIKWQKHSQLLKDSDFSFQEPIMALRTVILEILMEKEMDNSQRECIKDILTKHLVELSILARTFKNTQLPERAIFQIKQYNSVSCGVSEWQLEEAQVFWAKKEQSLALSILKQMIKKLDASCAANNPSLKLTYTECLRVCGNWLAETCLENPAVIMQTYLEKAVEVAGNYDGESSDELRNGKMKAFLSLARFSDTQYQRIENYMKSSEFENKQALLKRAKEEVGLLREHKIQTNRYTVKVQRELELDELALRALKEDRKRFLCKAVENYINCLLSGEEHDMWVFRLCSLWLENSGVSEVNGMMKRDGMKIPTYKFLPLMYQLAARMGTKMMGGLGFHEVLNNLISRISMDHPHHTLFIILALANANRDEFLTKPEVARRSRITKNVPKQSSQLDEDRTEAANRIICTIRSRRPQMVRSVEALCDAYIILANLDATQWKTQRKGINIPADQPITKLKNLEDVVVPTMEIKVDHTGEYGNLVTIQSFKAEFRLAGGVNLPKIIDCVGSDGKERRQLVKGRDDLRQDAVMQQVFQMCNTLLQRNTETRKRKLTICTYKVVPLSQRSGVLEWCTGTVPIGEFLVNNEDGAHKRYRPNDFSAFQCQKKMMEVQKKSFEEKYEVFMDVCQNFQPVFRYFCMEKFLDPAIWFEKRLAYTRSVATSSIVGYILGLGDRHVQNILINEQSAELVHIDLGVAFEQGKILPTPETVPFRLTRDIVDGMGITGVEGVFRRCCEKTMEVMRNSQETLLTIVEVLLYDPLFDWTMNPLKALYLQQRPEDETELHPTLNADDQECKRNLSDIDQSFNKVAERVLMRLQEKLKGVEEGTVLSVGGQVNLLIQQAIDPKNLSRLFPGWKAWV

One may read the IC50 as the concentration at which inhibition is half-maximal. `CN(C)CCCOc1ncc(-c2ccc3ncc4c(c3c2)C2(CCC2)C(=O)N4C)cc1NS(=O)(=O)C1CCC1` [Example 253, N-(2-(3-(Dimethylamino)propoxy)-5-(3′-methyl-2′-oxo-2′,3′-dihydrospiro [cyclobutane-1,1′-pyrrolo[2,3-c]quinolin]-8′-yl)pyridin-3-yl) cyclobutanesulfonamide]: the IC50 in experiment [1] (ATP 20 μM) and in experiment [2] (setting [3]) was 1 to 100 nM in each case.
Take `Cc1ccc(S(=O)(=O)Nc2cc(-c3ccc4ncc5c(c4c3F)C3(CCC3)C(=O)N5C)cnc2OCCCN(C)C)cc1` [Example 204, N-(2-(3-(Dimethylamino)propoxy)-5-(9′-fluoro-3′-methyl-2′-oxo-2′,3′-dihydrospiro[cyclobutane-1,1′-pyrrolo[2,3-c]quinolin]-8′-yl)pyridin-3-yl)-4-methylbenzenesulfonamide]: the IC50 in experiment [1] (ATP 20 μM) fell in the range of 0.5 to 1 nM; in experiment [2] (setting [3]), 1 to 100 nM.
In the same order, the values of `CC(C)NCCOc1ncc(-c2ccc3ncc4c(c3c2)C2(CCCC2)C2=NCCN24)cc1NS(C)(=O)=O` [Example 257, N-(5-(8′,9′-Dihydrospiro[cyclopentane-1,11′-imidazo[1′,2′:1,5]pyrrolo[2.3-c]quinolin]-2′-yl)-2-(2-(isopropylamino)ethoxy)pyridin-3-yl)methanesulfonamide] are less than 0.5 nM and 1 to 100 nM.
`CN(C)CCCOc1ncc(-c2ccc3ncc4c(c3c2)C2(CCC2)C(=O)N4C)cc1NS(=O)(=O)c1ccns1` [Example 188, N-(2-(3-(Dimethylamino)propoxy)-5-(3′-methyl-2′-oxo-2′,3′-dihydrospiro [cyclobutane-1,1′-pyrrolo [2,3-c]quinolin]-8′-yl)pyridin-3-yl) isothiazole-5-sulfonamide hydrochloride]: the 50% inhibitory concentration (IC50) in experiment [1] (ATP 20 μM) is less than 0.5 nM; in experiment [2] (setting [3]) it was 1 to 100 nM.
In the case of `CN(C)CCCOc1ncc(-c2ccc3ncc4c(c3c2)C2(CCC2)C(=O)N4C)cc1NS(=O)(=O)c1cc(F)cc(C(F)(F)F)c1` [Example 156, N-(2-(3-(Dimethylamino)propoxy)-5-(3′-methyl-2′-oxo-2′,3′-dihydrospiro[cyclobulane-1,1′-pyrrolo[2,3-c]quinolin]-8′-yl)pyridin-3-yl)-3-fluoro-5-(trifluoromethyl)benzenesulfonamide hydrochloride], the 50% inhibitory concentration (IC50) in experiment [1] (ATP 20 μM) and in experiment [2] (setting [3]) was 1 to 100 nM in each case.
As for `CN(C)CCCOc1ncc(-c2ccc3ncc4c(c3c2)C2(CC2)C(=O)N4C)cc1NS(=O)(=O)c1cnn(C)c1` [Example 91, N-(2-(3-(Dimethylamino)propoxy)-5-(3′-methyl-2′-oxo-2′,3′-dihydrospiro [cyclopropane-1,1′-pyrrolo[2,3-c]quinolin]-8′-yl)pyridin-3-yl)-1-methyl-1H-pyrazole-4-sulfonamide], the figures for the half-maximal inhibitory concentration (IC50) in experiment [1] (ATP 20 μM) and in experiment [2] (setting [3]) were less than 0.5 nM and 1 to 100 nM, respectively.
With `CC(C)NCCOc1ncc(-c2cc3c4c(cnc3cc2F)N(C)C(=O)C42CN(c3ccccc3)C2)cc1NS(C)(=O)=O` [Example 519, N-(5-(7′-Fluoro-3′-methyl-2′-oxo-1-phenyl-2′,3′-dihydrospiro[azetidine-3,1′-pyrrolo[2,3-c]quinolin]-8′-yl)-2-(2-(isopropylamino)ethoxy)pyridin-3-yl)methanesulfonamide hydrochloride], the results for the IC50 in experiment [1] (20 μM ATP) and in experiment [2] (setting [4]) were less than 0.5 nM and 1 to 100 nM, respectively.
As for `CN(C)CCCOc1ncc(-c2cc3c4c(cnc3cc2F)N(C)C(=O)C42CC2)cc1NS(=O)(=O)C1CC1` [Example 66, N-(2-(3-(Dimethylamino)propoxy)-5-(7′-fluoro-3′-methyl-2′-oxo-2′,3′-dihydrospiro[cyclopropane-1,1′-pyrrolo[2,3-c]quinolin]-8′-yl)pyridin-3-yl) cyclopropanesulfonamide], the half-maximal inhibitory concentration (IC50) in experiment [1] (ATP 20 μM) and in experiment [2] (setting [3]) was 1 to 100 nM each time.
Turning to `CN1C(=O)C2(CCC2)c2c1cnc1ccc(-c3cnc(N4CCC(N5CCOCC5)CC4)c(NS(=O)(=O)N(C)C)c3)cc21` [Example 355, 8′-{5-[(Dimethylsulfamoyl)amino]-6-[4-(morpholin-4-yl)piperidin-1-yl]pyridin-3-yl}-3′-methyl-2′,3′-dihydrospiro[cyclobutane-1,1′-pyrrolo[2,3-c]quinoline]-2′-one], the IC50 in experiment [1] (20 μM ATP) and in experiment [2] (setting [4]) was 1 to 100 nM each time.
For `COC1CN(S(=O)(=O)Nc2cc(-c3cc4c5c(cnc4cc3F)N(C)C(=O)C53CCC3)cnc2N2CC(N(C)C)C2)C1` [Example 311, N-(2-(3-(Dimethylamino)azetidin-1-yl)-5-(7′-fluoro-3′-methyl-2′-oxo-2′,3′-dihydrospiro[cyclobulane-1,1′-pyrrolo[2,3-c]quinolin]-8′-yl)pyridin-3-yl)-3-methoxyazetidine-1-sulfonamide formate], the concentration for half-maximal inhibition (IC50) in experiment [1] (ATP 20 μM) and in experiment [2] (setting [3]) was 1 to 100 nM in each case.
For the compound `CN1C(=O)C2(CCC2)c2c1cnc1ccc(-c3cnc(N4CC(N(C)C)C4)c(NS(=O)(=O)C4CC4)c3)cc21` [Example 320, N-(2-(3-(Dimethylamino)azetidin-1-yl)-5-(3′-methyl-2′-oxo-2′,3′-dihydrospiro[cyclobulane-1,1′-pyrrolo[2,3-c]quinolin]-8′-yl)pyridin-3-yl)cyclopropanesulfonamide], the IC50 in experiment [1] (ATP 20 μM) and in experiment [2] (setting [3]) was 1 to 100 nM throughout.
In the case of `CC(C)NCCOc1ncc(-c2cc3c(cc2F)ncc2c3[C@]3(C[C@H](OC(C)C)C3)C(=O)N2C)cc1NS(C)(=O)=O` [Example 395, cis-N-(5-(7′-Fluoro-3-isopropoxy-3′-methyl-2′-oxo-2′,3′-dihydrospiro[cyclobutane-1,1′-pyrrolo[2,3-c]quinolin]-8′-yl)-2-(2-(isopropylamino)ethoxy)pyridin-3-yl)methanesulfonamide], the 50% inhibitory concentration (IC50) in experiment [1] (20 μM ATP) and in experiment [2] (setting [4]) was 1 to 100 nM in each case.
In the case of `Cc1ccc(S(=O)(=O)Nc2cc(-c3ccc4ncc5c(c4c3)C3(CCC3)C(=O)N5C)cnc2N2CCC(N3CCOCC3)CC2)cc1` [Example 167, 4-Methyl-N-(5-(3′-methyl-2′-oxo-2′,3′-dihydrospiro[cyclobutane-1,1′-pyrrolo[2,3-c]quinolin]-8′-yl)-2-(4-morpholinopiperidin-l-yl)pyridin-3-yl)benzenesulfonamide hydrochloride], the concentration for half-maximal inhibition (IC50) in experiment [1] (ATP 20 μM) and in experiment [2] (setting [3]) was 1 to 100 nM throughout.
Consider `CN(C)CCCOc1ncc(-c2ccc3ncc4c(c3c2)C2(CC2)C(=O)N4C)cc1NS(=O)(=O)c1ccc(Cl)cc1` [Example 128, 4-Chloro-N-(2-(3-(dimethylamino)propoxy)-5-(3′-methyl-2′-oxo-2′,3′-dihydrospiro[cyclopropane-1,1′-pyrrolo[2,3-c]quinolin]-8′-yl)pyridin-3-yl)benzenesulfonamide hydrochloride], for which the IC50 is less than 0.5 nM in experiment [1] (ATP 20 μM) and 1 to 100 nM in experiment [2] (setting [3]).
For the compound `CC(C)NCCOc1ncc(-c2cc3c(cc2F)ncc2c3[C@]3(C[C@H](c4ccncc4)C3)C(=O)N2C)cc1NS(C)(=O)=O` [Example 438], the 50% inhibitory concentration (IC50) in experiment [1] (20 μM ATP) and in experiment [2] (setting [4]) was 1 to 100 nM throughout.
With `CC1CCCN(S(=O)(=O)Nc2cc(-c3ccc4ncc5c(c4c3)C3(CCC3)C(=O)N5C)cnc2OCCCN(C)C)C1` (stereo not drawn) [Example 175, N-(2-(3-(Dimethylamino)propoxy)-5-(3′-methyl-2′-oxo-2′,3′-dihydrospiro [cyclobutane-1,1′-pyrrolo[2,3-c]quinolin]-8′-yl)pyridin-3-yl)-3-methylpiperidine-1-sulfonamide], the IC50 in experiment [1] (ATP 20 μM) and in experiment [2] (setting [3]) was 1 to 100 nM in each case.
Take `CN(C)CCCOc1ncc(-c2ccc3ncc4c(c3c2)C2(CCC2)C(=O)N4C)cc1NS(=O)(=O)c1cncs1` [Example 169, N-(2-(3-(Dimethylamino)propoxy)-5-(3′-methyl-2′-oxo-2′,3′-dihydrospiro [cyclobutane-1,1′-pyrrolo [2,3-c]quinolin]-8′-230 yl)pyridin-3-yl)thiazole-5-sulfonamide hydrochloride]: the values for the IC50 in experiment [1] (ATP 20 μM) and in experiment [2] (setting [3]) were less than 0.5 nM and 1 to 100 nM, respectively.
Turning to `CCN1C(=O)C2(CC2)c2c1cnc1ccc(-c3cnc(OCCCN(C)C)c(NS(=O)(=O)c4ccccc4)c3)cc21` [Example 42, N-(2-(3-(Dimethylamino)propoxy)-5-(3′-ethyl-2′-oxo-2′,3′-dihydrospiro [cyclopropane-1,1′-pyrrolo[2,3-c]quinolin]-8′-yl)pyridin-3-yl)benzenesulfonamide], the IC50 in experiment [1] (ATP 20 μM) lay in the range of 0.5 to 1 nM; in experiment [2] (setting [3]), 1 to 100 nM.
`CC(C)NCCOc1ncc(-c2cc3c(cc2F)ncc2c3[C@]3(C[C@H](c4ccccc4)C3)C(=O)N2C)cc1NS(C)(=O)=O` [Example 414, cis-N-(5-(7′-Fluoro-3′-methyl-2′-oxo-3-phenyl-2′,3′-dihydrospiro[cyclobutane-1,1′-pyrrolo[2,3-c]quinolin]-8′-yl)-2-(2-(isopropylamino)ethoxy)pyridin-3-yl)methanesulfonamide hydrochloride]: the IC50 in experiment [1] (20 μM ATP) and in experiment [2] (setting [4]) was 1 to 100 nM in each case.
Regarding `CCO[C@H]1C[C@]2(C1)C(=O)N(C)c1cnc3cc(F)c(-c4cnc(OCCNC(C)C)c(NS(C)(=O)=O)c4)cc3c12` [Example 393, cis-N-(5-(3-Ethoxy-7′-fluoro-3′-methyl-2′-oxo-2′,3′-dihydrospiro[cyclobutane-1,1′-pyrrolo[2,3-c]quinolin]-8′-yl)-2-(2-(isopropylamino)ethoxy)pyridin-3-yl) methanesulfonamide], the IC50 in experiment [1] (20 μM ATP) and in experiment [2] (setting [4]) was 1 to 100 nM each time.
Consider `CN1C(=O)C2(CCC2)c2c1cnc1ccc(-c3cnc(OCCNC(C)(C)C)c(NS(C)(=O)=O)c3)cc21` [Example 309], for which the IC50 in experiment [1] (ATP 20 μM) is 0.5 to 1 nM; in experiment [2] (setting [3]), 1 to 100 nM.

The record behind these values is patent publication US12187742B2 (XRAD Therapeutics, Inc., priority 2018, dated 2025).
